Assay results reported in patent publication US20060019951A1, “Vacuolins” (CBR Institute for Biomedical Research, priority 2002, published 2006).

Test system: vacuole formation in cells exposed to a vacuolin
Assay: Conditions under which vacuole formation is blocked in cells exposed to a vacuolin
Type: cell-based
Settings: FIGS. 8-10
From the text: Additional studies were directed at identifying conditions under which vacuole formation is blocked (see, for example, FIGS. 8-10). […] It is likely that the intravacuolar pH is higher than the low pH of lysosomes; the vacuoles are likely to accumulate Cl ions (see, for example, FIG. 11).

## CO/C1=C\C(C)=C\[C@@H](C)[C@@H](O)[C@@H](C)C/C(C)=C/C=C/[C@H](OC)[C@@H]([C@@H](C)[C@@H](O)[C@H](C)[C@@]2(O)C[C@@H](O)[C@H](C)[C@@H](C(C)C)O2)OC1=O [bafilomycin A]
  effect on vacuole formation in cells exposed to a vacuolin: inhibited
